Reference: article PMC9595134, “Novel pituitary actions of GnRH in teleost: The link between reproduction and feeding regulation” (Frontiers in Endocrinology, 2022)
Where a SMILES comes first, the peptide text is derived from it. [ ]: non-standard residue; d: D form. pGlu = O=C1CC[C@@H](C(=O)O)N1

What was measured:
[1] = tested on: grass carp pituitary cells; experiment: qRT-PCR of anorectic genes in pituitary cells; format: cell-based, grass carp (Ctenopharyngodon idellus)
Procedure: The preparation of grass carp pituitary cells was performed as mentioned above. After drug treatment, the total RNA of these cells was isolated by TRIzol reagent and reverse transcribed into cDNA with Hifair™ III 1st Strand cDNA Synthesis Kit. The transcript levels of several anorectic peptides (POMCb, CART2, UTS1, NMBa, NMBb, and Lepr) and reproductive genes (GtHα, LHβ, FSHβ, INHBa, SgII, DRD2) were detected by using an ABI 7500 quantitative real-time PCR (qRT-PCR) system (Biosystems, USA) (information of primers for target genes is listed in Supplementary Table S3 ). In this process, a serial gradient dilution of plasmid DNA of these genes was used as a standard for data calibration. The conditions of qRT-PCR were set to 10 min, 95°C, for pre-degeneration; 15 s, 95°C, for degeneration; 30 s, 55°C–60°C, for annealing; 30 s, 72°C, for extending; and 20 s, 82°C, for signal detection with 40 cycles. Finally, the melt curve obtained through each test was used to verify and check the reliability and specificity of the corresponding qRT-PCR.
The transcript level was detected using qRT-PCR by ABI 7500 software, while the data calibration of each reaction was performed through standard curves with the dynamic range of 10^5 and correlation coefficient >0.95. The transcript level of β-actin was used as an internal control, and target gene mRNA expression was normalized and calculated as a percentage of the mean value (as “% Ctrl”). Based on merging four to eight replicates (as mean ± SEM), the data were analyzed with a one-way ANOVA to differentiate the significant differences from other treatment experiments. The SPSS Statistics 26.0 software was used to do a Dunnett’s post-hoc test. […] The different letters represent a significant difference at p < 0.05 between groups.
To further verify the functional role of GnRH2 and GnRH3 on feeding regulation, time- and dose-dependent tests were performed to detect the effect of GnRH2 and GnRH3 on anorectic gene (POMCb, CART2, UTS1, NMBa, NMBb, and LEPR) mRNA expression. In the time-course test, the grass carp pituitary cells were incubated by GnRH2 or GnRH3 (1 μM) for 3, 6, 12, and 24 h, respectively. […] In the dose-dependent test, grass carp pituitary cells were incubated by the continuous gradient dilution of GnRH2 or GnRH3 (0.1–1,000 nM) for 24 h.
Figure 9 Regulation of feeding hormone gene mRNA expression by GnRH2 and GnRH3 in grass carp pituitary cells. (A) Time-course experiment of grass carp GnRH2 (1 μM) and GnRH3 (1 μM) on POMCb, CART2, UTS1, NMBa, NMBb, and LEPR mRNA expression in grass carp pituitary cells. (B) Dose dependence of a 24-h treatment with increasing levels of GnRH2 and GnRH3 (0.1–1,000 nM) on POMCb, CART2, UTS1, NMBa, NMBb, and LEPR mRNA expression in grass carp pituitary cells. […]

[2] = tested on: goldfish; design: method as in PMID 7507838, PMID 8045371; details: sexually regressed animals, ref [34], [35]; cited from earlier work

**Q.** For `CC(C)C[C@H](NC(=O)[C@H](Cc1c[nH]c2ccccc12)NC(=O)CNC(=O)[C@H](Cc1ccc(O)cc1)NC(=O)[C@H](CO)NC(=O)[C@H](Cc1c[nH]c2ccccc12)NC(=O)[C@H](Cc1c[nH]cn1)NC(=O)[C@@H]1CCC(=O)N1)C(=O)N1CCC[C@H]1C(=O)NCC(N)=O` [GnRH3] ([pGlu]HWSYGWLPG-NH2), which “effect on POMCb, CART2, UTS1, NMBa, NMBb, and LEPR mRNA expression, time course” value ([1]; 1 μM, 3, 6, 12, and 24 h, time-dependent, Figure 9A) is on record?
**A.** Its value is “significantly induce”.

**Q.** What about the “effect on POMCb, CART2, UTS1, NMBa, NMBb, and LEPR mRNA expression, dose dependence” value ([1]; 0.1–1,000 nM, 24 h, dose-dependent, Figure 9B) of the same compound?
**A.** Its value is “significantly induce”.

**Q.** What about the LH-releasing activity [2] of the same compound?
**A.** Its LH-releasing activity is “potent LH-releasing activity”.
